Measurements reported in the RepoRT retention time repository.

test: Agilent ZORBAX 300 SB-C18, 150 × 1 mm, 3.5 µm; A: water + 0.01% heptafluorobutyric acid; B: acetonitrile + 0.01% heptafluorobutyric acid; gradient (min/%B) 0/0 100/90; details: stereoisomer not certain

| Compound | LC retention time [min] |
| --- | --- |
| c1cc(C2=NC(c3ccncc3)C(c3ccncc3)N2)ccn1 (configuration not stated) | 7.12 |
| Cn1c(=S)[nH]c2ccccc21 | 9.31 |
| C=CCC1NC(C)(C)Cc2ccccc21 (configuration not stated) | 9 |
| Cc1[nH]c2ccc(C(=O)O)cc2c1CC(=O)O | 8.13 |
| CC1(C)CC(NC(=S)Nc2ccccc2)CC(C)(C)N1 | 9 |
| Cc1ccccc1-n1nnnc1-c1ccc(-c2nnnn2-c2ccccc2C)cc1 | 15.3 |
| CCNC(=S)NCCc1c[nH]c2ccccc12 | 11.2 |
| CC(C)Cn1c(Cc2ccccc2)nc2ccccc21 | 11.4 |
| Cc1ccc(-c2nc(-c3c[nH]c4ccccc34)[nH]c2-c2ccc(C)cc2)cc1 | 13.7 |
| CCOC(=O)c1[nH]c(C)cc1C | 12.5 |
| O=C(O)CCN1CCCc2ccccc21 | 11.3 |
| COc1ccc(C=CC(=O)c2ccccc2)cc1OC | 14.5 |
| Nc1ccc2c(c1)oc1ccccc12 | 11.6 |
| CNCCCCCCN(C)CCCCCCNC | 7.6 |
| CN(C)CC(C)(C)CO | 6.43 |
| CN1CCN(C)CC1 | 6.13 |
| CC1(C)OCOC1=CC[N+](C)(C)C | 7.65 |
| COc1ccc(CN2CCC(N)CC2)cc1OC | 7.7 |
| Cn1c2nc(=O)[nH]c(=O)c-2nc2ccccc21 | 8.38 |
| CCCCCCC=CC(C)=O | 16.2 |
| Oc1ccc(-c2cnc3ccccc3n2)cc1 | 11.4 |
| COc1ccc2c(c1)C(C)N1C(=O)c3ccccc3C1O2 (configuration not stated) | 13.9 |

| Compound | LC retention time [min] |
| --- | --- |
| CC1NC(=O)N(c2cccc(N)c2)C1=O (configuration not stated) | 7.05 |
| CC(=O)c1cccc(NC(=O)Nc2ccc(C)cc2)c1 | 12.9 |
| Cc1ccc(-c2cnc3ccccc3n2)cc1 | 16.3 |
| CN(C(=O)CCCN1C(=O)c2ccccc2C1=O)C1CC(C)(C)N(C)C(C)(C)C1 | 9.02 |
| Cc1ccc2nc[nH]c2c1 | 7.74 |
| N=c1oc2ccccc2cc1C(=O)Nc1ccc(Oc2ccccc2)cc1 | 13 |
| c1ccc(-c2nc3ccccc3[nH]2)cc1 | 9.01 |
| O=C(NC(Cc1ccccc1)C(=O)NCc1ccco1)c1ccccc1 (configuration not stated) | 12.8 |
| C=CCN1CCC23c4c5ccc(O)c4OC2C(O)C=CC3C1C5 (configuration not stated) | 8.18 |
| CC(C)CNCC(C)C | 8.04 |
| CCc1cccnc1 | 6.88 |
| Nc1ncnc(N)n1 | 7.16 |
| CC(=O)Nc1ccc(O)cc1 | 6.65 |
| CNCc1cccs1 | 7 |
| CC(C)NCC(O)COc1ccc(CCOCC2CC2)cc1 (configuration not stated) | 10.7 |
| CN(C)c1nc(N)nc(N(C)C)n1 | 8.03 |
| COc1cc(CCN)cc(OC)c1OC | 8.22 |
| C=C(C)CC1C=CCC(CC(=C)C)N1Cc1ccccc1 (configuration not stated) | 11.9 |
| Nc1ccc2[nH]c3c(c2c1)CCCC3 | 8.89 |
| CC(=O)NC(NC(C)=O)C(O)C(O)C(O)C(O)CO (configuration not stated) | 1.55 |
| CC(=O)Oc1ccc2cccc(N(C(C)=O)C(C)=O)c2c1 | 12 |
| C(=Cc1cccs1)c1ccccn1 | 9.18 |

| Compound | LC retention time [min] |
| --- | --- |
| CC(=O)N1CCC(C2CCNCC2)CC1 | 7 |
| CNCCc1ccccc1 | 7.97 |
| COc1cccc(C2CC(=O)Nc3cc4c(cc32)OCO4)c1OC (configuration not stated) | 12 |
| CCCCN(CCCC)C(=O)c1ccc(OC(C)=O)cc1 | 15.3 |
| O=C(N=CNC(=O)c1cccnc1)c1cccnc1 | 7.45 |
| CC(=O)CNC(C)(C)C(C)=O | 5.92 |
| CCOC(=O)C=CC(=O)NCCC1=CCCCC1 | 13.8 |
| COC(=O)Cc1ccc(N)cc1N | 7.24 |
| CN(C)c1nc(N(C)C)nc(N(C)C)n1 | 9.15 |
| COc1ccc2cc3[n+](cc2c1OC)CCc1cc2c(cc1-3)OCO2 | 10.6 |
| Cc1cc(C(=O)O)c2ccccc2n1 | 5.51 |
| CC(=NNC(=O)c1cc2ccccc2cc1O)c1ccc(-c2ccccc2)cc1 | 16.3 |
| O=C(NN=CC=NNC(=O)c1ccccn1)c1ccccn1 | 8.62 |
| O=C(CNC(=O)c1ccco1)NN=Cc1ccco1 | 8.12 |
| CNCc1ccccc1 | 7.43 |
| CCC(NC)c1ccccc1OC (configuration not stated) | 9.09 |
| CN(C)c1ccc(C=C2Nc3ccccc3C2=O)cc1 | 13.7 |
| Cc1cc(O)c(C(C)C)cc1NC(=O)Cn1nc(C)c2ccccc2c1=O | 11.9 |
| CCC(O)(CC)c1ccccc1N | 8.79 |
| C[N+](C)(C)CC(=O)O | 1.67 |
| CC(C)(C)Nc1ncnc2ccccc12 | 9.02 |
| CC1=CC(=O)C(C)(C)NC1 | 6.78 |

| Compound | LC retention time [min] |
| --- | --- |
| CCCCCCCCCCCC(N)=O | 16.7 |
| C#CC(C)(CC)NC(=O)CCc1ccccc1 (configuration not stated) | 13 |
| CNCCN | 6.51 |
| CN1CCOC1=O | 3.96 |
| COc1ccc(N)cc1 | 7.59 |
| CNCCCC12CCC(c3ccccc31)c1ccccc12 | 11.7 |
| S=c1[nH]c(-c2ccccc2)c(-c2ccccc2)n1-c1ccccc1 | 14.4 |
| CCOC(=O)c1c(C)n(-c2ccccc2)c2ccc(OC(C)=O)cc12 | 17 |
| NC1CC(CO)C(O)C1O (configuration not stated) | 2.49 |
| Cc1nncn1-c1ccccc1 | 8.5 |
| COC(=O)CCc1c(COC(C)=O)[nH]c(C(=O)OCc2ccccc2)c1C | 15.1 |
| Cc1cc(N)cc(C)c1O | 6.91 |
| CNc1ccccc1C | 8.19 |
| CNc1ccccn1 | 6.54 |
| O=c1c(Cc2ccccc2)c(O)c2ccccc2n1Cc1ccccc1 | 15.2 |
| CCCCCCCCCCCCCN | 14 |
| Cc1ccc(N2CC(C(=O)O)CC2=O)cc1C (configuration not stated) | 10.2 |
| NC(CO)c1ccccc1 (configuration not stated) | 7.02 |
| NC(=O)C1(N2CCCCC2)CCN(C(=O)c2ccccc2)CC1 | 7.76 |
| Oc1ccc2c(c1)C13CCCCC1(O)C(C2O)N(CC1CCC1)CC3 (configuration not stated) | 8.68 |
| COc1ccc2c(c1)CCC1C2CCC2(C)C(=O)C(=Cc3ccccc3)CC12 (configuration not stated) | 21.4 |
| Cc1cccc(C)c1NC(=S)Nc1ccccc1 | 13.1 |

| Compound | LC retention time [min] |
| --- | --- |
| Nc1ccc[nH]c1=O | 2.98 |
| Nc1ccc2[nH]ccc2c1 | 7.01 |
| O=C1c2ccccc2-c2nc3ccccc3nc21 | 13 |
| CCNC(=O)C(=O)NCCc1c[nH]c2ccccc12 | 10.8 |
| CCCc1ccc(N)cc1 | 9.04 |
| O=C(O)c1cc(=O)[nH]c(=O)[nH]1 | 1.33 |
| O=C(O)c1cccc(C(=O)O)n1 | 3.12 |
| C#CC(C)(N)CC (configuration not stated) | 6.91 |
| Cc1cccc(OCC(O)CNC(C)C)c1 (configuration not stated) | 9.65 |
| NC(=O)CCCc1c[nH]c2ccccc12 | 9.42 |
| CN1CCc2cccc3c2C1Cc1ccc(O)c(O)c1-3 (configuration not stated) | 8.8 |
| O=P(O)(O)CN(CCN(CP(=O)(O)O)CP(=O)(O)O)CP(=O)(O)O | 1.09 |
| CCCCCCCNC(=O)c1ccc(OC(C)=O)cc1 | 14.9 |
| Oc1cccc(-c2cc(-c3ccccc3)c3c(ccc4ncccc43)n2)c1 | 13.7 |
| c1coc(C2NCCc3ccccc32)c1 (configuration not stated) | 8.65 |
| S=C1NCN(CCC2=CCCCC2)CN1 | 10.2 |
| Nc1ccccc1C(=O)N1CCNC(=O)C1 | 6.83 |
| NCCCCC(NC(CCc1ccccc1)C(=O)[O-])C(=O)N1CCCC1C(=O)O (configuration not stated) | 8.09 |
| NC1CCOC1=O (configuration not stated) | 3.11 |
| Cc1nc2ccccc2[nH]1 | 7.36 |
| Cc1ccc(N2CCN(C(=O)C(c3ccccc3)c3ccccc3)CC2)cc1C | 17.5 |
| Cc1cc(C)c(-c2csc(N)n2)c(C)c1 | 8.82 |

| Compound | LC retention time [min] |
| --- | --- |
| Cc1ccc2[nH]c3nc4ccccc4nc3c2c1 | 13.2 |
| Cc1cccc(N2CN(Cc3ccccc3)CNC2=S)c1C | 14.1 |
| O=C(C[n+]1ccccc1)C1CC1 | 6.91 |
| Cc1cccn2cc(-c3cccs3)cc12 | 17 |
| O=C(NCCc1ccc2oc3ccccc3c2c1)C1CCCCC1 | 16.3 |
| Cc1ccc(C=C2C(=O)c3ccccc3C2=O)o1 | 15.1 |
| O=c1ccc2nc3ccc(O)cc3oc-2c1 | 9.57 |
| Cc1ccc(C(=O)c2ccc(CC(=O)O)n2C)cc1 | 10.5 |
| CCN(CC)c1ccc(C(=O)NC(c2ccccc2)c2ccccc2)cc1 | 15.8 |
| O=C1NC(O)C(O)N1 (configuration not stated) | 1.42 |
| CC1=C(C(=O)c2ccccc2)CC(C(=O)c2ccccc2)=C(C)N1 | 13.2 |
| COc1ccc2occ(C(=O)c3ccccc3C)c(=O)c2c1 | 14.2 |
| Cc1ccccc1CN | 7.83 |
| COC(=O)CC1CC(C)(C)NC(C)(C)C1 | 8 |
| Cc1ccc(Nc2ccccc2)cc1 | 16.5 |
| O=C(CC1NC(=O)N(C2CCCCC2)C1=O)NCCc1c[nH]c2ccccc12 (configuration not stated) | 12.1 |
| CCC(C)NC(C)CC (configuration not stated) | 8.16 |
| CN(CCNc1ccccc1)C(N)=O | 7.86 |
| O=C(NNC(=O)C1CCCCC1C(=O)O)C(c1ccccc1)c1ccccc1 (configuration not stated) | 11.8 |
| S=C(NC1CCCCC1)NC1CCCCC1 | 14.9 |
| c1ccc(SCSc2ccccn2)nc1 | 13.7 |
| Cc1ccc(C)c2c1ccn2C | 15.8 |
